Here are results for 24 compounds from patent US9931324B2, “Indolizine derivatives and their use in neurodegenerative diseases” (Merck Patent GmbH, priority 2014, dated 2018).

Assay [1] deals with T1, P2X7 (Homo sapiens, UniProt Q99572).
T1 sequence (Q99572 1-595): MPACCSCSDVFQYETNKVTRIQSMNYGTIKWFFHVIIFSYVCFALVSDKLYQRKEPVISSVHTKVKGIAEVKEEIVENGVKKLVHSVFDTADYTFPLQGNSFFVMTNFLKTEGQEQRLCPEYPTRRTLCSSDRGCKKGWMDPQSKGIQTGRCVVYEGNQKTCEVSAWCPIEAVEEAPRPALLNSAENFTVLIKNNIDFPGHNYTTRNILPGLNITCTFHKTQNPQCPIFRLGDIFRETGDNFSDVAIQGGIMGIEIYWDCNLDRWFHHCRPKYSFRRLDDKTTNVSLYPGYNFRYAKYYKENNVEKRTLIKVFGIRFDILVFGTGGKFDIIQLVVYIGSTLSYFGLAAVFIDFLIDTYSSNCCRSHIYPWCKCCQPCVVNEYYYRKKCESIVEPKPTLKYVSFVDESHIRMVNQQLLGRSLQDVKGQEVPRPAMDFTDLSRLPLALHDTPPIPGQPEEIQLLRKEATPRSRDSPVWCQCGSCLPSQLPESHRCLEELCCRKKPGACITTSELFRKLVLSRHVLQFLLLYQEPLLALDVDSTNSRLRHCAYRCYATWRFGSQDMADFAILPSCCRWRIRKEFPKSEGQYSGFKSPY
Description: IL-1β release assay in THP-1 cells (sandwich ELISA, BzATP-stimulated). It is filed as cell-based. On the set-up: endogenous in cells; host or cells: THP-1 cells (PMA-differentiated, LPS-primed). The following applies: LPS primed, 0.8 mM BzATP, mature IL-1β release, read-out: hTHP-1/IL-ib IC50. How it is done: IL-1β release assay: The activation of P2X7 by ATP leads to a fast transient activation of cells resulting in influx of Ca^2+ followed by conversion of pro-IL-1β to active IL-1β. The functional activity of P2X7 compounds was measured by the release of mature IL-1β in the culture medium of THP-1 cells, detected by sandwich ELISA. Cells were maintained in complete growth medium (RPMI 1640+10% HI-FCS+2 mM L-glutamine+1× PS). […] THP-1 cells were harvested from the flask in 50 ml by centrifugation for 3 min at 100 g. The cells were resuspended to 2×10^5 cells/ml in medium supplemented with 0.5 μM PMA and incubated. The cells were washed and resuspended to 1.5×10^5 cells/ml in medium complemented with 10 ng/ml LPS, and the cells were primed for 4 h at 37° C., 5% CO2. After addition of 20 μL of prediluted test compounds, blank, standard and control reagents, cells were incubated for a further 20 min at 37° C. and stimulated with 0.8 mM BzATP for 30 minutes. The cells were centrifuged, supernatant was collected and the presence of mature IL-1β was detected using Dual human IL-1b kit following manufacturer's instruction. The tetrahydrobenzodiazepine analogs effectively modulated the activity of P2X7 in the cells as measured by the levels of pro-inflammatory cytokine IL-1β, which is released by the activation of P2X7 receptor.
A general note: An ELISA detects its analyte on a solid surface through an enzyme-linked reagent.

For assay [2], the target named is T1, P2X7. Briefly: Pore permeation assay (YO PRO dye uptake, BzATP-induced). Type of assay: cell-based. On the set-up: expressed in transfected cells; host or cells: HEK293. The following applies: HEK293 transfected with human P2X7 receptor, BzATP 10 uM, read-out: hP2X7 IC50. On the procedure: Agonist-induced pore formation was determined by measuring cellular uptake of YO PRO fluorescence dye in HEK293 transfected with human P2X7 receptor. A HEK293 cell over expressing human P2X7 was harvested using HQTase reagent to detach the cells from T75 cm flask. The harvested cells are centrifuged @1200 rpm for 5 min at room temperature. The viability of cells was determined by Trypan blue dye and the cells are plated @10,000 cell/well in 50 ul volume in a 384W BD Poly lysine coated plate and incubated overnight at 37 C. After overnight incubation, the culture medium was replaced with 35 ul/well assay buffer (5 mM KCl, 0.1 mM CaCl2, 5 mM Glucose, 10 mM HEPES buffer pH7.4 containing 125 mM NaCl. The serial dilution of compounds was performed using Bravo liquid handling instrument and the compounds were added using Bravo to the cell assay plate starting at 2.5 uM with three dilutions for 10 points. The positive control inhibitor compound was added to column 23. The plate was shaken slowly on a plate shaker for 10 seconds. The cells were incubated with the compound for 20 minutes at room temperature. After the incubation period, YO PRO dye (1 uM) along with BzATP (10 uM) were added to cells at 10 ul/well. The plate was centrifuged at 1000 rpm for 5 seconds and incubated at room temperature for 30 minutes. The uptake of YO PRO dye into the cells was measured using Envision Fluorescence plate reader instrument (Perkin Elmer).

Structures are written as SMILES.

Regarding `COCCc1cc(C(=O)NCC2(O)CCCC(F)(F)C2)c2c(Cl)cccn12` (stereo in doubt) [Compound 63, 8-Chloro-3-(2-methoxy-ethyl)-indolizine-1-carboxylic Acid ((S)-3,3-difluoro-1-hydroxy-cyclohexylmethyl)-amide], the IC50 at P2X7 [1] and at P2X7 [2] was less than 10 nM in each case.

For the compound `COCCc1cc(C(=O)NCC2CCCCCC2)c2c(Cl)cccn12` [Compound 1, 8-chloro-N-(cycloheptylmethyl)-3-(2-methoxyethyl)indolizine-1-Carboxamide], the IC50 on P2X7 [1] fell in the range of 101 to 500 nM; on P2X7 [2], 10 to 100 nM.

`COCCc1cc(C(=O)NCC2CCCC3(CC3)C2)c2c(Cl)cccn12` (stereo not drawn) [Compound 2, 8-chloro-3-(2-methoxyethyl)-N-(spiro[2.5]octan-5-ylmethyl)indolizine-1-carboxamide]: the IC50 at P2X7 [1] is 10 to 100 nM; on P2X7 [2], less than 10 nM. In the case of `O=C(NCC1CCC(F)(F)CC1)c1cc(C2CCC2)n2cccc(Cl)c12` [Compound 5, 8-chloro-3-cyclobutyl-N-((4,4-difluorocyclohexyl)methyl)indolizine-1-carboxamide], the IC50 on P2X7 [1] lay in the range of 101 to 500 nM; on P2X7 [2], 10 to 100 nM. For `O=C(NCC1CCCCCC1)c1cc(CCO)n2cccc(Cl)c12` [Compound 6, 8-chloro-N-(cycloheptylmethyl)-3-(2-hydroxyethyl)indolizine-1-Carboxamide], in that order: 10 to 100 nM and 10 to 100 nM. For `COCCc1cc(C(=O)NCC2CCCCC2)c2c(Cl)cccn12` [Compound 8, 8-chloro-N-(cyclohexylmethyl)-3-(2-methoxyethyl)-indolizine-1-carboxamide], in that order: 101 to 500 nM and 10 to 100 nM.

Turning to `O=C(NCC1CCC(F)(F)CC1)c1cc(I)n2cccc(Cl)c12` [Compound 9], the IC50 on P2X7 [1] and on P2X7 [2] was 101 to 500 nM each time.

Consider `COCCc1cc(C(=O)NCC2(O)CCCC(C)(C)C2)c2c(Cl)cccn12` (stereo not drawn) [Compound 10, 8-chloro-N-((1-hydroxy-3,3-dimethylcyclohexyl)methyl)-3-(2-methoxyethyl) indolizine-1-carboxamide], for which the IC50 on P2X7 [1] and at P2X7 [2] was 10 to 100 nM each time. Take `COCCc1cc(C(=O)NCC2CCC(F)(F)C(C)C2)c2c(Cl)cccn12` (stereo not drawn) [Compound 11, 8-chloro-N-((4,4-difluoro-3-methylcyclohexyl)methyl)-3-(2-methoxyethyl) indolizine-1-carboxamide]: the IC50 on P2X7 [1] is 10 to 100 nM; on P2X7 [2] it was less than 10 nM.

On to `O=C(NCC1(O)CCC(F)(F)CC1)c1cc(C2CCC2)n2cccc(Cl)c12` [Compound 12, 8-chloro-3-cyclobutyl-N-((4,4-difluoro-1-hydroxycyclohexyl)methyl) indolizine-1-carboxamide], for which the figures for the IC50 at P2X7 [1] and on P2X7 [2] were 101 to 500 nM and 10 to 100 nM, respectively. For `COCCc1cc(C(=O)NCC2CC(C)CC(F)(F)C2)c2c(Cl)cccn12` (stereo not drawn) [Compound 13, 8-chloro-N-((3,3-difluoro-5-methylcyclohexyl)methyl)-3-(2-methoxyethyl)indolizine-1-carboxamide], in that order: 10 to 100 nM and 10 to 100 nM. For `O=C(NCC1CCC(F)(F)CC1)c1cc(C2=COCC2)n2cccc(Cl)c12` [Compound 14, 8-chloro-N-((4,4-difluorocyclohexyl)methyl)-3-(4,5-dihydrofuran-3-yl)indolizine-1-carboxamide], in that order: 10 to 100 nM and 10 to 100 nM. The matching figures for `O=C(NCC1CCCCC1)c1cc(CCO)n2cccc(Cl)c12` [Compound 15, 8-chloro-N-(cyclohexylmethyl)-3-(2-hydroxyethyl)indolizine-1-carboxamide]: 101 to 500 nM and 101 to 500 nM.

Regarding `COCCc1cc(C(=O)NC[C@@]2(O)CCC[C@@H](C)C2)c2c(C)cccn12` [Compound 16, 3-(2-Methoxy-ethyl)-8-methyl-indolizine-1-carboxylic Acid ((1R,3R)-1-hydroxy-3-methylcyclohexylmethyl)-amide], the IC50 fell in the range of 101 to 500 nM at P2X7 [1] and 10 to 100 nM on P2X7 [2]. For `O=C(NCC1CCCC(F)(F)C1)c1cc(C2CCCO2)n2cccc(Cl)c12` (stereo not drawn) [Compound 17, 8-Chloro-3-(tetrahydro-furan-2-yl)-indolizine-1-carboxylic Acid (3,3-difluoro-cyclohexylmethyl)-amide], in that order: 10 to 100 nM and less than 10 nM. For `COCCc1cc(C(=O)NCC2(O)CCC(F)(F)CC2)c2c(C)cccn12` [Compound 46, 3-(2-Methoxy-ethyl)-8-methyl-indolizine-1-carboxylic Acid (4,4-difluoro-1-hydroxy-cyclohexylmethyl)-amide], the IC50 on P2X7 [2] was in the range of 101 to 500 nM. Same read-out and setting: with `COCCc1cc(C(=O)NCC2(O)CCC(F)(F)CC2)c2c(C(F)(F)F)cccn12` [Compound 49, 3-(2-Methoxy-ethyl)-8-trifluoromethyl-indolizine-1-carboxylic Acid (4,4-difluoro-1-hydroxy cyclohexylmethyl)-amide] the figure was 101 to 500 nM.

For the compound `O=C(NCC1CCC(F)(F)CC1)c1cc(C2(O)CCOC2)n2cccc(Cl)c12` (stereo not drawn) [Compound 55, 8-chloro-N-((4,4-difluorocyclohexyl)methyl)-3-(3-hydroxytetrahydrofuran-3-yl)indolizine-1-carboxamide], the IC50 on P2X7 [2] lay within 101 to 500 nM.

Turning to `O=C(NCC1(O)CCC(F)(F)CC1)c1cc(C2CCOCC2)n2cccc(Cl)c12` [Compound 56, 8-chloro-N-((4,4-difluoro-1-hydroxycyclohexyl)methyl)-3-(tetrahydro-2H-pyran-4-yl)indolizine-1-carboxamide], the IC50 on P2X7 [2] was 10 to 100 nM. Still for that read-out and setting: the result for `O=C(NCC1CCC(F)(F)CC1)c1cc(C2(O)COC2)n2cccc(Cl)c12` [Compound 58, 8-Chloro-3-(3-hydroxy-oxetan-3-yl)-indolizine-1-carboxylic acid (4,4-difluoro-cyclohexylmethyl)-amide] reads 101 to 500 nM. Regarding `COCCc1cc(C(=O)NCCC2(O)CCCC2)c2c(Cl)cccn12` [Compound 59, 8-chloro-N-(2-(1-hydroxycyclopentyl)ethyl)-3-(2-methoxyethyl)indolizine-1-carboxamide], the IC50 at P2X7 [1] is greater than 1000 nM. Turning to `O=C(NCC1(O)CCCC(F)(F)C1)c1cc(CCO)n2cccc(Cl)c12` (stereo not drawn) [Compound 68, 8-Chloro-3-(2-hydroxy-ethyl)-indolizine-1-carboxylic Acid (3,3-difluoro-1-hydroxy-cyclohexylmethyl)-amide], at P2X7 [2], the IC50 lay in the range of 10 to 100 nM. Same read-out and setting: the result for `O=C(NCC1(O)CCCC(C(F)(F)F)C1)c1cc(C2CCOC2)n2cccc(Cl)c12` (stereo not drawn) [Compound 74, 8-chloro-N-((1-hydroxy-3-(trifluoromethyl)cyclohexyl)methyl)-3-(tetrahydrofuran-3-yl)indolizine-1-carboxamide] reads greater than 1000 nM. Same read-out and setting: the result for `CC(CO)c1cc(C(=O)NCC2CCC(F)(F)CC2)c2c(Cl)cccn12` (stereo not drawn) [Compound 75, 8-Chloro-3-(2-hydroxy-1-methyl-ethyl)-indolizine-1-carboxylic Acid (4,4-difluoro-cyclohexylmethyl)-amide] reads 10 to 100 nM.
